Measurements from ChEMBL document CHEMBL1133286, “5-HETE congeners as modulators of cell proliferation” (2000).

tested on: LNCaP; assay: Evaluated for its growth enhancement or mitogenic activity using LNCaP prostate cultures.; format: functional, cell-based; details: Homo sapiens, Prostate gland

Question: For CCCCCCCC/C=C\CCCCCCCC(=O)NCCO, which Control is on record?
Answer: No effect

tested on: LNCaP; assay: Evaluated for its growth enhancement or mitogenic activity using LNCaP prostate cultures; format: functional, Homo sapiens, Prostate gland; details: not given

Question: With CCCCC/C=C\C/C=C\C/C=C\C=C\C(O)CCCC(=O)OC (stereo not given) as the compound, how does the Control read?
Answer: 111%

Question: CCCCC/C=C\C/C=C\C/C=C\C=C\C(O)CCCC(=O)NCCO (stereo not given) was tested. Which Control did it give?
Answer: 125%

Question: CCCCC/C=C\C/C=C\C/C=C\C=C\C(O)CCCC(=O)NN (stereo not given) was tested. Which Control did it give?
Answer: 60%

Question: How did the Control turn out when CCCCC/C=C\C/C=C\C/C=C\C=C\C(O)CCCC(=O)c1cnccn1 (stereo not given) was run?
Answer: 113%

Question: CCCCC/C=C\C/C=C\C/C=C\C=C\C(N)CCCC(=O)O (stereo not given) was tested. Which Control did it give?
Answer: 116%

Question: For CCCCC/C=C\C/C=C\C/C=C\C=C\C(O)CCCC(N)=O (stereo not given), which Control is on record?
Answer: 108%

Question: Which Control does the source give for CCCCC/C=C\C/C=C\C/C=C\C=C\C(O)CCCC(=O)NOC (stereo not given) here?
Answer: 133%

Question: For CCCCC/C=C\C/C=C\C/C=C\C=C\C(O)CCCC(=O)N(C)OC (stereo not given), which Control is on record?
Answer: 115%

Question: With CCCCC/C=C\C/C=C\C/C=C\C=C\C(O)CCCC(=O)O (stereo not given) as the compound, how does the Control read?
Answer: 116%

Question: CCCCC/C=C\C/C=C\C/C=C\C=C\C(CCCC(=O)O)NC (stereo not given) was tested. Which Control did it give?
Answer: 125%

Question: CCCCC/C=C\C/C=C\C/C=C\C=C\C(O)CCCC(=O)NO (stereo not given) was tested. Which Control did it give?
Answer: 3%

Question: For CCCCC/C=C\C/C=C\C/C=C\C=C\C(O)CCCC(=O)NCCCN (stereo not given), which Control is on record?
Answer: 116%

Question: How did the Control turn out when CCCCC/C=C\C/C=C\C/C=C\C=C\C(O)CCCC(=O)N1CCOCC1 (stereo not given) was run?
Answer: 106%

Question: For CCCCC/C=C\C/C=C\C/C=C\C=C\C1CCCC(=O)N1 (stereo not given), which Control is on record?
Answer: 121%

Question: For CCCCC/C=C\C/C=C\C/C=C\C=C\C1CCCC(=O)N1C (stereo not given), which Control is on record?
Answer: 131%

Question: For CCCCC/C=C\C/C=C\C/C=C\C=C\C(O)CCCC(=O)NC (stereo not given), which Control is on record?
Answer: 108%

Question: How did the Control turn out when CCCCC/C=C\C/C=C\C/C=C\C=C\C(O)CCCC(=O)N(C)C (stereo not given) was run?
Answer: 138%

Question: With CCCCC/C=C\C/C=C\C/C=C\C/C=C\CCCC(=O)NCCO [ANANDAMIDE] as the compound, how does the Control read?
Answer: 112%

Question: How did the Control turn out when CCCCC/C=C\C/C=C\C/C=C\C=C\C(O)CCCC(=O)N1CCCCC1 (stereo not given) was run?
Answer: 123%
